The source of these data is PubChem BioAssay AID588562 (The Scripps Research Institute Molecular Screening Center, 2011).

Active and inactive are the calls of the source. How the calls were made is not given here.

Chain of Neuropeptides B/W receptor type 1 (Homo sapiens) (P48145 whole entry, looked up): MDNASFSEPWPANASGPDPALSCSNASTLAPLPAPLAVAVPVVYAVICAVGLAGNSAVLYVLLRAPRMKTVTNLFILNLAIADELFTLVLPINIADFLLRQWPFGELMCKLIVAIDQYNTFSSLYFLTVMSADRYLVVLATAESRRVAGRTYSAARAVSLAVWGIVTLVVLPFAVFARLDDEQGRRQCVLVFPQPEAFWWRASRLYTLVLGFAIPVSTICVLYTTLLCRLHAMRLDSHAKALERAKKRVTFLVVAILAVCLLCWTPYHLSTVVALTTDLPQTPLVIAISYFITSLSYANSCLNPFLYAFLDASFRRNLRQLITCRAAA

The assay has as its target Neuropeptides B/W receptor type 1 (Homo sapiens) (UniProt P48145). In words: GPR7 receptor antagonists, late-stage follow-up, cell-based, fluorescence, percent inhibition (AID 588562). As to conditions: GPR7-expressing cells, fluorescence antagonist assay; at 20 µM; active compounds read high.
For the compound `COc1ccc(Oc2c(N)cnn(-c3ccc(C(C)C)cc3)c2=O)cc1`, the inhibition was -10% (inactive).
For the compound `COc1ccc(Oc2c(NC(C)=O)cnn(-c3ccc(C(C)C)cc3)c2=O)cc1`, the inhibition was 15% (inactive).
As for `COc1ccc(Oc2ccnn(-c3ccc(C)cc3)c2=O)cc1`, the figure is 24% (inactive); as for `COc1ccc(Oc2c(N)cnn(-c3ccc(C(F)(F)F)cc3)c2=O)cc1`, 31% (inactive).
As to `COc1ccc(Oc2c(C(=O)N(C)C)cnn(-c3ccc(C(C)C)cc3)c2=O)cc1`, the inhibition was 7% (inactive).
Regarding `COc1ccc(Oc2c(N3CCN(C(=O)OC(C)(C)C)CC3)cnn(-c3ccc(C(C)C)cc3)c2=O)cc1`, the inhibition is 15% (inactive).
As for `COc1ccc(Oc2c(N3CCN(C)CC3)cnn(-c3ccc(C(C)C)cc3)c2=O)cc1`, the figure is -25% (inactive); as for `COc1ccc(Oc2c(C(=O)O)cnn(-c3ccc(C(C)C)cc3)c2=O)cc1`, -16% (inactive); as for `CCOc1ccc(Oc2c(Cl)cnn(-c3ccc(C(C)C)cc3)c2=O)cc1`, 46% (inactive).
Turning to `CC(C)c1ccc(-n2ncc(Cl)c(Oc3ccc(C(F)(F)F)cc3)c2=O)cc1`, the inhibition was 55% (inactive).
To `COc1ccc(COc2c(Cl)cnn(-c3ccc(C(C)C)cc3)c2=O)cc1` belongs 27% (inactive); to `COc1ccc(Oc2c(-n3nnc(C)c3C)cnn(-c3ccc(C(C)C)cc3)c2=O)cc1`, 15% (inactive).
As for `CC(C)c1ccc(-n2ncc(NCc3ccccc3)c(Cl)c2=O)cc1`, the inhibition is -18% (inactive).
For `COc1ccc(Oc2c(N3CCOCC3)cnn(-c3ccc(C(C)C)cc3)c2=O)cc1`, the inhibition is 37% (inactive).
With `CC(C)c1ccc(-n2ncc(Cl)c(Oc3cc(C(C)(C)C)cc(C(C)(C)C)c3)c2=O)cc1`, the inhibition was -3% (inactive).
